Test results: patent US10617662B2, “Autophagy activation-induced compound for improving skin inflammation for aging” (INCOSPHARM CORPORATION, priority 2017, dated 2020)

What was measured:
[1] = system: KLK7 (Kallikrein-related peptidase 7); assay: RT-PCR of psoriasis-related gene KLK7; format: cell-based, human; conditions: HEKa cells, 20 uM, FIGS. 2 and 3
Procedure: A psoriasis-related genes were selected from the cDNA array result in which Compound 8 of the present invention was treated in HaCaT cells. In order to analyze whether Compound 8 has an effect on psoriasis alleviation, RT-PCR analysis for IL-36′ (interleukin 36 gamma), KLK7 (Kallikrein-related peptidase 7), OASL (2′-5′-Oligoadenylate Synthetase Like) and ALOX12B (Arachidonate 12-lipoxygenase, 12R type) which are very closely related to psoriasis was carried out. Further, KRT16 (Keratin 16), KRT6 (Keratin 6) and KRT1 (Keratin 1), known as psoriasis-related proliferation, differentiation markers were confirmed by a western blot analysis. As the specific experimental method, HEKa cells (Human Epidermal keratinocytes, adult), human-derived epidermal keratinocytes were seeded on a 24 well plate at a density of 1×10^5 cells, and cultured in an EpiLife medium (1× Human keratinocyte Growth supplement, 1× antibiotics) in an incubator under 37° C. and 5% CO2 for 24 hours. […]

[2] = system: IL-6 (interleukin 6); assay: ELISA for IL-6 in HEKa cells under inflammatory condition; format: cell-based, human; conditions: TNF-α/IFN-γ or IL-17A/IL-22 induced inflammatory condition, 10·M, FIGS. 5 to 7
Procedure: (§1) In order to analyze whether treatment of Compound 8 has an atopy alleviation effect, ELISA (enzyme-linked immunosorbent assay) for IL-6 (interleukin 6) and IL-8 (interleukin 8) which are very closely related to atopic inflammation and psoriasis was performed.
(§2) As the specific experimental method, HEKa cells (Human Epidermal keratinocytes, adult), human-derived epidermal keratinocytes were seeded on a 24 well plate at a density of 1×10^5 cells, and cultured in an EpiLife medium (1× Human keratinocyte Growth supplement, 1× antibiotics) in an incubator under 37° C. and 5% CO2 for 24 hours.
(§3) After culturing, while an inflammatory condition was induced by treatment with either TNF-α (Tumor necrosis factor-α)/IFN-γ (interferon-γ) or IL-17A (interleukin-17A)/IL-22 (interleukin-22) in each well, further treatment was performed with Compound 8 of the present invention at a concentration of 10·M, and then the cells were incubated for a certain period. After completing culturing, media were collected, and then ELISA for each IL-6 and IL-8 was carried out.

[3] = system: IL-8 (interleukin 8); assay: ELISA for IL-8 in HEKa cells under inflammatory condition; format: cell-based, human; conditions: TNF-α/IFN-γ or IL-17A/IL-22 induced inflammatory condition, 10·M, FIGS. 5 to 7
Procedure: as §1, §2, §3

[4] = system: psoriasis animal model induced by imiquimod 5% cream; assay: Psoriasis animal model (imiquimod), clinical findings: erythema; format: in vivo, BALB/c mice
Procedure: (§4) In order to confirm the psoriasis treatment effect by Compound 8 of the present invention, dorsal hair of 8-week-old BALB/c mice (female) was removed using hair removal cream (Veet®, Oxy Reckitt Benckiser, Cedex, France), and subsequently imiquimod 5% cream (Aldara®; 3M Pharmaceuticals, UK; 62.5 mg) was applied on the back and both ears of the mice twice in the morning and in the afternoon (Sensitization; Day 0). Then, after a barrier recovery period of 2 days, imiquimod 5% cream (62.5 mg/day) was applied repeatedly for 7 days (Induction stage; Day 2 -Day 8), thereby inducing the psoriasis animal model.
After inducing the psoriasis animal model, Compound 8 of the present invention dissolved in ethanol (0.5%) and cream containing Compound 8 of the present invention (The same composition as that of the cosmetic composition of Example 14 […]; […]). An untreated control group and a disease control group (vehicle) were treated with cream not containing Compound 8 of the present invention (cosmetic composition of Comparative Example 2) and ethanol, and during the treatment period, imiquimod 5% cream was applied thereon every other day, thereby maintaining psoriasis.

[5] = system: psoriasis animal model induced by imiquimod 5% cream; assay: Psoriasis animal model, transepidermal water loss (TEWL); format: in vivo, BALB/c mice; conditions: increased by 5% imiquimod; applied for 5 days, 0.5% in ethanol or 0.5% cream; FIG. 17
Procedure: as §4
After inducing the psoriasis animal model, Compound 8 of the present invention dissolved in ethanol (0.5%) and cream containing Compound 8 of the present invention (The same composition as that of the cosmetic composition of Example 14 except that it contained 0.5% by weight of Compound 8) were applied on the back once in the morning for 5 days (Treatment Stage; Day 8-Day 12). An untreated control group and a disease control group (vehicle) were treated with cream not containing Compound 8 of the present invention (cosmetic composition of Comparative Example 2) and ethanol, and during the treatment period, imiquimod 5% cream was applied thereon every other day, thereby maintaining psoriasis. […]

[6] = system: CXCL2 (Chemokine (C-X-C motif) ligand 2); assay: Cytokine gene expression, CXCL2, TNFα/IFN-γ induced inflammatory condition; format: cell-based, human; conditions: FIG. 8
[7] = system: LC3 (light chain 3) protein; assay: Western blot for LC3 protein, autophagy activation; format: cell-based, human; conditions: HaCaT cells; 20 uM dilution, 1 ml added to 1 ml medium; FIG. 1
Procedure: In order to analyze increased intracellular autophagy activation by treatment of Compound 8 of the present invention, a western blot analysis for LC3 (light chain 3) protein was performed.
As a specific experimental method, HaCaT, human epidermal keratinocytes were seeded in on a 6 well plate at a density of 3×10^5 cells, and cultured in DMEM (Dulbecco's Modified Eagle Media, Gibco BRL) in an incubator under 37° C. and 5% CO2 for 24 hours. Compound 8 of the present invention was dissolved in DMSO at a concentration of 10 mM to be a concentrate, and diluted with a medium to be at a concentration of 20 uM. Then in a state where 1 ml of medium was first in each well, 1 ml of each diluted solution was added thereto for treatment, and cultured for a certain period, and after completing the culture, the medium was removed, and then cells were disrupted with a SDS sample buffer, and each protein was separated by SDS-PAGE gel electrophoresis, and transferred to a PVDF (polyvinylidene fluoride) membrane. Thereafter, non-specific binding was eliminated using a blocking buffer, and an antibody against LC3 protein and a HRP-bound secondary antibody (anti-rabbit IgG HRP (sigma)) were reacted, and then an enhanced chemiluminescence (ECL) reaction using an ECL prime kit (Amersham Pharmacia) was carried out, thereby performing a ChemiDoc analysis.

CCCCCCCCCCCCCCCC(=O)NCCCC[C@H](NC(=O)[C@H](CCCCN(CC(=O)O)CC(=O)O)N(CC(=O)O)CC(=O)O)C(=O)O [Compound 8]
expression level of KLK7 gene [1]: significantly decreased
secretion of IL-6 [2]: significantly reduced
secretion of IL-8 [3]: significantly reduced
erythema on day 14, reduction level ([4]; day 14 after treatment, FIG. 14): very remarkable
erythema increased by imiquimod ([4]; topical on back, 0.5% in ethanol or 0.5% cream, treatment for 6 days, FIG. 13): significantly reduced
TEWL value [5]: remarkably reduced
expression level of CXCL2 [6]: reduced
production of LC3-II [7]: increased
